The text below walks through data of patent US20160151389A1 (priority 2014, published 2016).

For experiment [1], the system named is JNK MAPK. Kind of experiment: Phosphorylation of JNK MAPK in LPS-activated BV-2 microglia cells (western blot). Type of experiment: cell-based, mouse. To be noted: LPS-induced, vehicle group 5.5±0.3 fold. On the procedure:
(§1) BV-2 cells (i.e., a mouse microglial cell line) were cultured in DMEM at a concentration of 2×10^5 cells per mL of the DMEM at 37° C. with 5% CO2 for 16 hours, wherein the DMEM was supplemented with deactivated fetal bovine serum (FBS, 10%), penicillin G (100 units/ml)/streptomycin (100 μg/ml), L-glutamine (3.65 mM), 4-(2-hydroxyethyl)-1-piperazineethanesulfonic acid (HEPES, 18 mM) and NaHCO3 (23.57 mM). […] Then, BV-2 cells were activated by being treated with lipopolysaccharide (LPS, 150 ng/ml) for 24 hours. BV-2 cells were lysed by a cell lysis buffer and centrifuged.
(In general: Immunoblotting shows a protein as a band on a membrane.)

Experiment [2] deals with ICH mouse model. Kind of experiment: Brain water content in collagenase-induced ICH mouse model. Format: in vivo. To be noted: ipsilateral hemisphere, 48 hours after ICH; 30 mg/kg orally at 30 minutes post-collagenase; ICH group 81.2±0.3%, NS group 78.7±0.1. On the procedure: Male C57B2/6J mice (each weighs about 23 to 28 g) were anesthetized with chloral hydrate (400 mg/kg), and then a 1 mm burr hole was drilled 2 mm lateral to the midline and 0.3 mm anterior to the bregma of each mouse. Type VII-S collagenase (0.02 unit dissolved in 1 μl saline) was infused into the area of the caudate/putamen at a rate of 0.2 μl/min for 5 minutes. After an additional period of 5 minutes, the burr hole was occluded. The mice were allowed to recover with a controlled heating lamp and a controlled heating pad (37° C.) and an ICH mouse model was obtained, hereinafter referred to as “ICH group.” Additionally, a pseudo-animal that was handled with the same mode but only infused with an equal volume of normal saline (NS) was obtained, hereinafter referred to as “NS group.” […]
After wet weights of the brain tissues of ipsilateral hemisphere and contralateral hemisphere of the “NS group,” “ICH group” and “ICH+ergostatrien-3β-ol group”) mice were measured, the brain tissues of the ipsilateral hemisphere and contralateral hemisphere were dried at 100° C. for 24 hours to obtain the dry weights. The brain water content was calculated by the following formula: (wet weight−dry weight)/wet weight×100%.

The subject of experiment [3] is COX-2. The experiment in a line: COX-2 expression in LPS-activated BV-2 microglia cells (western blot). Format: cell-based, mouse. To be noted: for relative expression rate of COX-2, fold of that of the control group: LPS 150 ng/ml 24 hours, vehicle group 8.34±0.05-fold; for inhibition ratio of COX-2 expression: LPS 150 ng/ml. On the procedure:
as §1

Experiment [4] concerns MMP-9. The experiment in a line: MMP-9-mediated gelatinolysis in astrocytes induced by LPS or thrombin (zymographic analysis). Format: cell-based, rat. An excerpt: It has been known that the MMP-9-mediated gelatinolysis in astrocytes can be induced by LPS in a concentration dependent manner. The preparation and culture of astrocytes can be seen in “Preparation of separate astroglial and oligodendroglial cell cultures from rat cerebral tissue. J. Cell Biol. 85:890-902 (1980)” and “A potent antioxidant, lycopene, affords neuroprotection against microglia activation and focal cerebral ischemia in rats. In Vivo. 18:351-356 (2004)”, which are entirely incorporated hereinto by reference.
Astrocytes were respectively treated with vehicle (i.e., 0.2% ethanol) or ergostatrien-3β-ol (1, 5 and 10 μM) for 15 minutes, and then induced by LPS (500 ng/ml) or thrombin (10 units/ml) for 24 hours to induce the activation of MMP-9 in the astrocytes.

Experiment [5] deals with ICH mouse model. Kind of experiment: Neurobehavioral test in collagenase-induced ICH mouse model. Format: in vivo. To be noted: 48 hours after ICH; 30 mg/kg orally; minimum 3, maximum 18; ICH group 9.6±1.2. On the procedure:
Male C57B2/6J mice (each weighs about 23 to 28 g) were anesthetized with chloral hydrate (400 mg/kg), and then a 1 mm burr hole was drilled 2 mm lateral to the midline and 0.3 mm anterior to the bregma of each mouse. Type VII-S collagenase (0.02 unit dissolved in 1 μl saline) was infused into the area of the caudate/putamen at a rate of 0.2 μl/min for 5 minutes. After an additional period of 5 minutes, the burr hole was occluded. The mice were allowed to recover with a controlled heating lamp and a controlled heating pad (37° C.) and an ICH mouse model was obtained, hereinafter referred to as “ICH group.” Additionally, a pseudo-animal that was handled with the same mode but only infused with an equal volume of normal saline (NS) was obtained, hereinafter referred to as “NS group.”
At 30 minutes post-collagenase injection, ergostatrien-3β-ol suspended in a 0.5% (w/v) vehicle (e.g., carboxymethyl cellulose (CMC)) was orally administered to the mouse at a dosage of 30 mg/kg. […]
At 48 hours after ICH was induced by collagenase, three groups of mice mentioned in Example 4 (i.e., the “NS group,” “ICH group” and “ICH+ergostatrien-3β-ol group”) were analyzed by a neurobehavioral test, which includes six tests for spontaneous activity, symmetry in the movement of four limbs, forepaw outstretching, climbing, body proprioception, and response to vibrissae touch. […]

For the compound `CC(C)[C@@H](C)/C=C/[C@@H](C)C1CCC2C3=CCC4C[C@@H](O)CC[C@]4(C)C3=CC[C@@]21C` (stereo partly shown), the “phosphorylation level of JNK MAPK, fold of that of the control group” value was 5.5±0.9 fold in experiment [1] (0.5 μM pre-treatment), 3.9±0.2 fold in experiment [1] (1 μM pre-treatment), 3.5±0.6 fold in experiment [1] (5 μM pre-treatment) and 2.4±0.3 fold in experiment [1] (10 μM pre-treatment). This compound registered a brain water content in experiment [2] of 80.4±0.3%. Further, the “relative expression rate of COX-2, fold of that of the control group” value in experiment [3] (0.5 μM pre-treatment 15 minutes) is 4.80±0.75 fold; in experiment [3] (1 μM pre-treatment 15 minutes) it was 3.91±0.64 fold; in experiment [3] (5 μM pre-treatment 15 minutes) it was 1.92±0.98 fold; in experiment [3] (10 μM pre-treatment 15 minutes), 2.14±0.86 fold. Also, the “inhibition ratio of COX-2 expression” value in experiment [3] (0.5 μM) is listed as 74%; in experiment [3] (1 μM) it was 94%; in experiment [3] (5 μM), 98%; in experiment [3] (10 μM), 106%. Besides, the “MMP-9-mediated gelatinolysis, fold of that of the control group” value in experiment [4] (LPS 500 ng/ml 24 hours, first of three values, 1 μM per b67 (b68 lists 0.5, 1, 5 or 10 μM), vehicle group 3.3±0.4-fold) came to 2.9±0.3 fold; in experiment [4] (LPS 500 ng/ml 24 hours, second of three values, 5 μM, vehicle group 3.3±0.4-fold), 2.5±0.3 fold; in experiment [4] (LPS 500 ng/ml 24 hours, third of three values, 10 μM, vehicle group 3.3±0.4-fold), 2.1±0.3 fold; in experiment [4] (thrombin 10 units/ml 24 hours, 5 μM, vehicle group 5.5±0.4-fold), 5.1±0.4 fold; in experiment [4] (thrombin 10 units/ml 24 hours, 10 μM, vehicle group 5.5±0.4-fold), 3.3±0.8 fold. The compound also displayed a neurobehavioral score in experiment [5] of 13.4±1.1.
